How the values were obtained:
[1] = organism: Homo sapiens; experiment: Selectivity for human ERalpha over human ERbeta
[2] = target: T1, Estrogen receptor beta (Homo sapiens, UniProt Q92731); experiment: Displacement of [3H]estradiol from human recombinant ERbeta relative to estradiol
[3] = target: T1, Estrogen receptor beta; experiment: Displacement of [3H]estradiol from human recombinant ERbeta
[4] = target: T2, Estrogen receptor (Homo sapiens, UniProt P03372)
T2 sequence (P03372 whole entry): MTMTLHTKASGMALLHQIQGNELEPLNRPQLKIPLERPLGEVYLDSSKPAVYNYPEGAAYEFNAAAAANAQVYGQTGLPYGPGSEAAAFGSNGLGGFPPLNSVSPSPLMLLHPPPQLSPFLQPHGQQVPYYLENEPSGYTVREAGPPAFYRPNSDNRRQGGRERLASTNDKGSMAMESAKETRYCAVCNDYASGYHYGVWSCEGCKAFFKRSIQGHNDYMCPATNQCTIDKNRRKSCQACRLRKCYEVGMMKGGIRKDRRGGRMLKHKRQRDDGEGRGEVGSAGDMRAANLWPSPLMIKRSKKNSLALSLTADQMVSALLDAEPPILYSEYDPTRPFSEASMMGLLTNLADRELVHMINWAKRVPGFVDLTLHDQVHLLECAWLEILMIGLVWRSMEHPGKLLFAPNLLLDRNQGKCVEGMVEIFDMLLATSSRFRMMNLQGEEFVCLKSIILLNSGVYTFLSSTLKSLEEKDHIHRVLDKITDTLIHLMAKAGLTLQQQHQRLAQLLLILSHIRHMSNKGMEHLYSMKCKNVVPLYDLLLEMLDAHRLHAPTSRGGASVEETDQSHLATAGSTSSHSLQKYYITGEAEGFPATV
Description: Displacement of [3H]estradiol from human recombinant ERalpha

T1 sequence (Q92731 whole entry): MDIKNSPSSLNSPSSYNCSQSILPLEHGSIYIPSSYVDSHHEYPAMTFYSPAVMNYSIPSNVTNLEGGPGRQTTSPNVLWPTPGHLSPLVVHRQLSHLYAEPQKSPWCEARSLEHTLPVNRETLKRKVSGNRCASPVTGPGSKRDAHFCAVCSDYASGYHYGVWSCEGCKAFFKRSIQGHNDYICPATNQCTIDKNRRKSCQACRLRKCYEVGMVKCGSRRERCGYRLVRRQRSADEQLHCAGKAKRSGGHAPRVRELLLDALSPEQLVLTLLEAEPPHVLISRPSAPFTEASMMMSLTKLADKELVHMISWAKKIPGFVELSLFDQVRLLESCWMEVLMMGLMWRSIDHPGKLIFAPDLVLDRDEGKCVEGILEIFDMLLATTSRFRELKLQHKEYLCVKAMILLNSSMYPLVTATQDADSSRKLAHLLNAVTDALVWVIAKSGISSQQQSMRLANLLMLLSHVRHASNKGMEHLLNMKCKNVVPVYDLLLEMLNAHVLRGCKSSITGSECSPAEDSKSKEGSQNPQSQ

Row | Ratio [1] | relative binding affinity (RBA) [2] | IC50 [3] | IC50 [4] | SMILES
1 |  | 0.25 |  |  | COc1ccc(-c2sc3cc(O)ccc3c2Oc2ccc(OCCN3CCCCC3)cc2)cc1
2 | 1.7 | 1 | 16.3 nM | 10.9 nM | Oc1ccc2c(Oc3ccc(OCCN4CCCCC4)cc3)c(-c3ccccc3)sc2c1
3 | 1.6 | 0.68 | 27.9 nM | 17.2 nM | Oc1ccc2c(Oc3ccc(OCCN4CCCCC4)cc3)c(-c3ccc(F)cc3)sc2c1
4 | 2.8 | 0.25 | 66.7 nM | 27 nM | Oc1ccc2c(Oc3ccc(OCCN4CCCCC4)cc3)c(-c3ccc(Br)cc3)sc2c1
5 |  | 1.77 | 9.6 nM |  | Oc1ccc(-c2sc3cc(O)ccc3c2Oc2ccc(OCCN3CCCCC3)cc2)cc1

The next lines start with the compound.

Row | SMILES | Ratio [1] | relative binding affinity (RBA) [2] | IC50 [3] | IC50 [4]
6 | Oc1ccc2c(Oc3ccc(OCCN4CCCCC4)cc3)c(-c3ccc(NCCCl)cc3)sc2c1 | > 50 | < 0.01 | > 1600 nM | 35.6 nM
7 | Nc1ccc(-c2sc3cc(O)ccc3c2Oc2ccc(OCCN3CCCCC3)cc2)cc1 | 2.8 | 0.34 | 48.6 nM | 19.3 nM
8 | O=C(CCl)Nc1ccc(-c2sc3cc(O)ccc3c2Oc2ccc(OCCN3CCCCC3)cc2)cc1 | 4.3 | 0.007 | 2360 nM | 666 nM
9 | CS(=O)(=O)c1ccc(-c2sc3cc(O)ccc3c2Oc2ccc(OCCN3CCCCC3)cc2)cc1 | 79 | 0.009 | 1800 nM | 27 nM
